In patent publication US20170304236A1, “ANTIALLERGIC AGENT” (TOHOKU UNIVERSITY, priority 2015, published 2017):

Columns and labels:
TSLP [1] = assay: TSLP production in KCMH-1 cells (ELISA); type: cell-based, mouse; settings: 24 hours, culture supernatant
Description: KCMH-1 cells (J. Immunol. Methods 402: 9-14 (2013)) were suspended in 10% FBS-containing MEM-α at 1.0×10^5 cells/mL.
The culture supernatant was collected, and a TSLP amount was measured with Mouse TSLP DuoSet (trademark) ELISA (R&D Systems).

TSLP mRNA = TSLP mRNA expression in stimulated HaCaT cells (real-time PCR); type: cell-based, human; settings: 16D10 10 and 100 μM, 4 hours
Source text: […] […] Forward: [NT], Reverse: [NT] rRNA forward: [NT], Reverse: [NT].

NF-κB [2] = assay: NF-κB luciferase reporter assay in KCMH-1 cells; type: cell-based, mouse; settings: 16D10 10 μM
Description: The transfection of Path Detect pNF-κB-Luc Plasmid (Stratagane) was performed with X-tremeGENE HP DNA Transfection Reagent in accordance with an accompanying protocol. Mouse keratinocyte KCMH-1 cells were seeded at 1×10^5 cells/ml into a 12-well plate (Falcon (trademark)), and cultured for 24 hours. The following day, first, to 50 μl of Opti-MEM at from 15° C. to 25° C., a 500 ng/μl reporter plasmid solution and a 100 ng/μl pGL4.74 [hRluc/TK] Vector solution were added at 1 μl each. Next, 1.5 μl of X-tremeGENE HP DNA Transfection Reagent was added, and the contents were lightly mixed by inversion and then left to stand still at room temperature for 15 minutes to form a transfection complex. Further, the culture supernatant was removed from the cells that had been cultured for 24 hours, and the cells were washed with PBS. After that, 950 μl of 10% FBS-containing MEMα was added to each well. […]
(§1) The measurement of luciferase activity was performed with Dual-Luciferase (trademark) Reporter Assay System in accordance with an accompanying protocol. […] Immediately after that, a Firefly luciferase luminescence integrated value for 10 seconds was calculated with AB-2200-R Luminescencer PSN (ATTO Corporation). After that, 50 μl of Stop&Glo reagent was added and the contents were lightly mixed, and then a Renilla luciferase luminescence integrated value for 10 seconds was measured.

TSLP [3] = assay: OVA air pouch model in ICR mouse; type: in vivo
Description: 500 μl of air was subcutaneously injected into the back of an ICR mouse (6-week-old, male, SLC) to form an air pouch (day 1). Further, 500 μl each of air was injected into the air pouch on day 2, day 5, and day 7. 24 hours after that, 300 μl of a solution prepared by dissolving ovalbumin (OVA) at 100 μg/0.3 ml in 2% (w/v) CMC-Na physiological saline that had been subjected to high-pressure steam sterilization and further dissolving penicillin G potassium and streptomycin sulfate at 0.1 mg/ml each therein was injected into the air pouch to induce inflammation. […]
8 hours after the administration of the solution into the air pouch, the mouse was killed through blood removal by cutting the carotid artery under anesthesia. 300 μl of physiological saline was injected into the air pouch so as to be mixed with air pouch internal fluid, and then the air pouch internal fluid was collected and its weight was measured. Its TSLP concentration was measured with Mouse TSLP DuoSet (trademark) ELISA (R&D Systems) in accordance with an accompanying protocol. 14 days after the administration of the solution into the air pouch, blood was collected, and the amount of OVA-specific IgE in serum was measured with an ELISA kit (Anti-ovalbumin IgE (mouse) EIA kit (Cayman 500840)).

various kinases = assay: Off-chip Mobility Shift Assay kinase panel (Carna Biosciences); type: biochemical; settings: 16D10 at 10 μM
Description: Carna Biosciences, Inc. was entrusted to measure the effect of the test compound 16D10 at 10 μM on the activity of each kinase by Off-chip Mobility Shift Assay (MSA) described on the website of Carna Biosciences, Inc. (http://www.carnabio.com/output/pdf/ProfilingProfilingBook_ja. pdf). Specifically, the measurement was performed by the following method.
The test compound is dissolved in and diluted with DMSO to a 100-fold concentration. Then, the solution is diluted 25-fold with assay buffer to prepare a test compound solution. A control is similarly prepared.
(1) […] of a 4-fold compound solution, 5 mL of a 4-fold Substrate/ATP/Metal solution, and […] of a 2-fold kinase solution are prepared with assay buffer (20 mM HEPES, 0.01% Triton X-100, 2 mM DTT, pH 7.5), and are mixed and incubated in a polypropylene 384-well plate at room temperature for from 1 hour or 5 hours* (*the reaction time is set depending on the kinase); (2) […] of termination buffer (QuickScout Screening Assist MSA; Carna Biosciences) is added to each well; (3) the reaction mixture is applied to a LabChip™ system (PerkinElmer), and the peaks of a product and a substrate peptide are separated and quantified; and (4) a kinase reaction is evaluated on the basis of a product ratio (P/(P+S)) calculated from the peak heights of the product (P) and the substrate (S) peptide.

TSLP [4] = assay: LPS-induced air pouch inflammation in Balb/c mouse; type: in vivo; settings: 8 hours after administration into the air pouch
Description: 500 μl of air was subcutaneously injected into the back of a Balb/c mouse (6-week-old, male, SLC) to form an air pouch (day 1). Further, 500 μl each of air was injected into the air pouch on day 2, day 5, and day 7. 24 hours after that, 300 μl of a solution prepared by dissolving LPS at 10 ng/ml in 2% (w/v) CMC-Na physiological saline that had been subjected to high-pressure steam sterilization and further dissolving penicillin G potassium and streptomycin sulfate at 0.1 mg/ml each therein was injected into the air pouch to induce inflammation. […]
8 hours after the administration of the solution into the air pouch, the mouse was killed through blood removal by cutting the carotid artery under anesthesia. 300 μl of physiological saline was injected into the air pouch so as to be mixed with air pouch internal fluid, and then the air pouch internal fluid was collected and its weight was measured. An infiltrating leukocyte count was measured with a hemocytometer after the collected air pouch internal fluid had been diluted with physiological saline as appropriate. […] The supernatant was collected, and its TSLP concentration was measured with Mouse TSLP DuoSet (trademark) ELISA (R&D Systems) in accordance with an accompanying protocol. […]

IKK, IκB, STAT6 = assay: Western blot of NF-κB-activating signal and STAT6 phosphorylation in HaCaT cells; type: cell-based, human; settings: 10 minutes; for TNF-α+IL-4 stimulation-induced increase in phosphorylation of IKK / TNF-α+IL-4 stimulation-induced reduction in inhibitory protein IκB of NF-κB: 16D10 100 μM
NF-κB [5] = assay: NF-κB luciferase reporter assay in HaCaT cells; type: cell-based, human; settings: TNF-α 100 ng/ml, 2 hours, 16D10 10 or 100 μM, TPCA-1 10 μM
Description: The transfection of Path Detect pNF-κB-Luc Plasmid (Stratagane) was performed with X-tremeGENE HP DNA Transfection Reagent in accordance with an accompanying protocol. Human keratinocyte HaCaT cells were seeded at 0.65×10^5 cells/ml into a 12-well plate (Falcon (trademark)), and cultured for 24 hours. […], first, to 50 μl of Opti-MEM at from 15° C. to 25° C., a 500 ng/μl reporter plasmid solution and a 100 ng/μl pGL4.74[hRluc/TK] Vector solution were added at 1 μl each. Next, 1. 5 μl of X-tremeGENE HP DNA Transfection Reagent was added, and the contents were lightly mixed by inversion and then left to standstill at room temperature for 15 minutes to form a transfection complex. Further, the culture supernatant was removed from the cells that had been cultured for 24 hours, and the cells were washed with PBS. After that, 950 μl of 10% FBS-containing MEMα was added to each well. […]
as §1

TSLP [6] = assay: TSLP production by TNF-α stimulation in PAM212 cells (ELISA); type: cell-based, mouse; settings: TNF-α 30 ng/ml, 16D10 1, 3 and 10 μM, 48 hours
Description: After the culture, TSLP in the culture solution was measured by EILSA.

| Structure (SMILES) | TSLP production-suppressing ability (TSLP [1]) | expression of TSLP mRNA (TSLP mRNA; Poly(I:C) 50 μg/ml stimulation) | expression of TSLP mRNA (TSLP mRNA; TNF-α 100 ng/ml stimulation) | transcriptional activity of NF-κB (NF-κB [2]; KCMH-1 cells, 24 hours) | TSLP production (NF-κB [2]; KCMH-1 mouse keratinocyte cell line) | OVA-specific IgE in serum (TSLP [3]; 14 days after administration into the air pouch) | TSLP production by OVA (TSLP [3]; air pouch internal fluid, 8 hours after administration) | activity of each kinase (various kinases) | TSLP concentration in air pouch internal fluid (TSLP [4]) | infiltrating leukocyte count (TSLP [4]) | TNF-α+IL-4 stimulation-induced increase in phosphorylation of IKK (IKK, IκB, STAT6) | TNF-α+IL-4 stimulation-induced reduction in inhibitory protein IκB of NF-κB (IKK, IκB, STAT6) | increase in phosphorylation of STAT6 by stimulation (IKK, IκB, STAT6; TNF-α + IL-4, 16D10 100 μM) | transcriptional activity of NF-κB (NF-κB [5]) | TSLP production by TNF-α (TSLP [6]) |
| --- | --- | --- | --- | --- | --- | --- | --- | --- | --- | --- | --- | --- | --- | --- | --- |
| COc1ccc(OC)c(/C=C/C(=O)c2cc(OC)c(OC)cc2CCNC(C)=O)c1 [16D10, (E)-N-[2-[2-[3-(2,5-dimethoxyphenyl)-1-oxo-2-propen-1-yl]-4,5-dimethoxyphenyl]ethyl]acetamide] | extremely high TSLP production-suppressing ability | suppressed | suppressed | without suppressing the transcriptional activity of NF-κB | suppressed TSLP production | suppressed the production of OVA-specific IgE | significantly suppressed TSLP production by OVA | did not suppress the activity of each kinase analyzed | significantly suppressed TSLP production | did not reduce infiltrating leucocytes | not suppressed | not suppressed | did not suppress | did not suppress the activity | suppressed TSLP production by TNF-α in a concentration-dependent manner |
| NC(=O)Nc1sc(-c2ccc(F)cc2)cc1C(N)=O [TPCA-1, [5-(p-Fluorophennyl)-2-ureido]thiophene-3-carboxamide, reference compound] | – | – | – | – | – | – | – | – | – | – | suppressed | suppressed | – | suppressed the transcriptional activity of NF-κB | – |
